{"source": "patent US9993002B2", "about": "“1,2,3-thiadiazol-5yl-urea derivatives, use thereof for regulating plant senescence and preparations containing these derivatives” (USTAV EXPERIMENTALNI BOTANIKY AV CR, V.V.I., priority 2014, dated 2018)", "key": {"[1]": {"system": "detached leaf segments of Triticum aestivum cv. Hereward", "test": "Senescence bioassay on wheat leaf segments in dark/light conditions", "settings": "foliar, 168 h, read-out: Senescence bioassay (IC50)", "procedure": "(§1) Seeds of winter wheat, Triticum aestivum cv. Hereward, were washed under running water for 24 hours and then sown on perlite soaked with Hogland's solution. They were placed in the growth chamber at 25° C. with a 16/8 h light period at 50 μmol·m^−2·s^−1. After 7 days, the first leaf was fully developed and the second leaf had started to grow. A tip section of the first leaf, approximately 4 cm long, was removed from 4 seedlings and trimmed slightly to a combined weight of 100 mg. The basal ends of the four leaf tips were placed into the 96-wells plate containing 150 μL of the tested derivative solution each. The entire plate was inserted into a plastic box lined with paper tissues soaked in distilled water to prevent leaf sections from drying out. After 96 h incubation in the dark at 25° C., the leaves were removed and chlorophyll extracted by heating at 80° C. for 10 min in 5 mL of 80% ethanol (v/v). The sample volume was then restored to 5 mL by the addition of 80% ethanol (v/v). The absorbance of the extract was recorded at 665 nm. In addition, chlorophyll extracts from fresh leaves and leaf tips incubated in deionised water were measured. The results are means of five replicates and the entire test was repeated at least twice. […] The compounds to be tested were dissolved in dimethylsulfoxide (DMSO) and the solution brought up to 10^−3 M with distilled water. […] The IC50 values were determined for standard (BAP) and novel tested compounds.\nThe ability of the novel compounds to retard chlorophyll degradation in detached wheat leaves was tested also in the light conditions. The experiment was performed as described in Example 7 with modifications as follows—the incubation of the leaves with the compounds was done in the dark/light conditions 8/16 (light—100 μmol·m^−2·s^−1) at 22° C. for 7 days. […] The newly prepared substituted 1,2,3-thiadiazol-5-yl urea derivatives of the invention are much stronger anti-senescent compounds in comparison to the BAP in retarding senescence under optimal (dark/light) conditions."}, "[2]": {"test": "Toxicity towards human skin fibroblasts (Calcein AM assay)", "type": "cell-based", "procedure": "Cytotoxicity of the compounds to human skin fibroblasts (BJ cell line) was determined in a standard Calceinovém AM test. Cells were maintained in plastic tissue culture flasks and grown in Dulbecco's modified Eagle's medium for cell culture (DMEM) at 37° C. in 5% CO2 and 100% humidity. Cells were placed into 96-well microtiter plates (Nunc, Denmark) and after 12 hours pre-incubation, the tested compound was added to a final concentration ranging from […]. Cells were incubated for 72 hours. At the end of incubation period Calcein AM was added in PBS to a final concentration of […]. After 1 hour of incubation fluorescence was measured at 485/538 nm (ex/em wavelength) using Fluoroskan Ascent (Labsystems, Finland). IC50 values (the concentration causing reduction of calcein AM conversion to 50%) were calculated from the curves obtained. All experiments were repeated four times with a maximum deviation of 15%. Due to the limited solubility of substances in water, all the tested compounds were dissolved in DMSO and diluted with water to a final concentration."}, "[3]": {"system": "detached leaves of Triticum aestivum cv. Hereward", "test": "Membrane lipid peroxidation (MDA, TBA method) in detached wheat leaves in the dark", "settings": "for MDA: four days in the dark", "procedure": "A typical symptom associated with senescence as a direct consequence of increased reactive oxygen species is membrane lipid peroxidation which produces malondialdehyde (MDA). Therefore the levels of MDA, a decomposition product of lipid peroxidation, were measured in detached wheat leaves that were exposed to the prepared novel derivatives or BAP for four days in the dark as described in Example 7. MDA levels were measured using a thiobarbituric acid (TBA) method. In detail, 100 mg of fresh plant material was homogenized by high speed shaking in a ball mill (MM301, Retsch, Germany) with 1 mL of 70% methanol. The crude extract was centrifuged at 10,000×g for 5 min, and 100 μL aliquot of supernatant was vortexed with 100 μL of 0.5% (w/v) TBA containing 0.1% (w/v) trichloroacetic acid, and the resulting solution was then incubated for 30 min at 95° C. The samples were quickly cooled on ice and centrifuged for 5 min at 1000 g. The absorbance of supernatant was measured at 532 nm with background subtraction at 600 nm and the amount of MDA-TBA complex was calculated from the coefficient of absorbance 155 mM^−1 cm^−1."}, "[4]": {"system": "detached leaf segments of Triticum aestivum cv. Hereward", "test": "Senescence bioassay on wheat leaf segments in dark conditions", "settings": "Triticum aestivum, foliar, 96 h, read-out: Senescence bioassay (IC50)", "procedure": "as §1"}, "wheat leaves": {"system": "wheat leaves", "test": "Ethylene production (defoliating activity) assay", "design": "species or system Triticum aestivum", "settings": "10 μM; for Ethylene produced: 96 h in the dark at 25° C., control 270 (±15)", "procedure": "We investigated the effect of the compounds of the invention on ethylene production in wheat leaves. The leaves were obtained as described in Example 8, placed in 5 mL glass vials and immersed at 10 μM solutions of tested compounds of the invention or TDZ. Distilled water was used as a control treatment. After 96 h incubation in the dark at 25° C., 1 mL of air was taken from the vials and content of ethylene in it was determined using gas chromatography with the flame ionization detector (GC-FID) method described by Fišerová et al. (Fišerová H, Kula E, Klemš M, Reinöhl V (2001) Phytohormones as indicators of the degree of damage in birch (Betula pendula). Biológia 56: 405-409)."}, "[5]": {"system": "spring barley (Hordeum vulgare), malting variety Bojos", "test": "Field experiment, spring barley, pre-soaked seeds", "type": "in vivo", "settings": "seeds pre-soaked in 50 μM solution", "procedure": "Seeds of spring barley (Hordeum vulgare), malting variety Bojos were pre-soaked in 50 μM solution of compound 6 or 65 and sown as described in example 15. For each variant at least 50 plants were used to obtain morphology parameters. Statistical evaluation was executed in stat. program PAST v. 2.17c."}, "[6]": {"system": "Arabidopsis thaliana (wild-type Col-0)", "test": "Root growth and lateral root formation of Arabidopsis", "type": "in vivo", "settings": "10 nM, two weeks after transfer", "procedure": "To investigate in vivo effect of the new derivatives on the root growth and development, seeds of Arabidopsis thaliana (wild-type Col-0) were surface sterilized and sown on vertical plates on half-strength Murashige-Skoog medium (supplied with 0.1% sucrose and 6 g/L phytagel) containing 10 nM BAP or 10 nM 1,2,3-thiadiazol-5-yl-urea derivative, or 0.01% DMSO (solvent control). After vernalization (4 days in the dark, 4° C.) plates were transferred into the growth chamber (22° C., 16/8 light/dark). Two weeks after transfer, seedlings were photographed and root elongation and lateral root formation was scored using Scion image software (Scion Corp., Frederick, Md., USA). At least 40 plants were measured for each treatment."}, "[7]": {"settings": "dark/light 8/16, 22° C., 7 days"}, "[8]": {"settings": "dark, 25° C., chlorophyll absorbance 665 nm"}}, "note": "Where two headings read alike, the source gives them in different places."}
{"smiles": "O=C(NCCCl)Nc1cnns1", "note": "[Compound 65, 1-(2-Chloro-ethyl)-3-[1,2,3]thiadiazol-5-yl-urea]", "values": [{"measurement": "IC50", "setting": "[1]", "result": 700, "unit": "nM"}, {"measurement": "CC50 at 72 h", "setting": "[2]; BJ cell line, 72 hours, read-out: not toxic up to the highest tested concentration (Calcein AM IC50)", "result": "> 100", "unit": "µM"}, {"measurement": "MDA", "setting": "[3]", "result": "16.4 (±0.5) nmol/g FW"}, {"measurement": "IC50", "setting": "[4]", "result": 14000, "unit": "nM"}, {"measurement": "Ethylene produced", "setting": "wheat leaves", "result": "335 (±25) nL/g FW"}, {"measurement": "grain yield compared to untreated control", "setting": "[5]", "result": 109.0, "unit": "%"}, {"measurement": "Lateral root number", "setting": "[6]", "result": "12 (±8)"}, {"measurement": "Primary root lenght", "setting": "[6]", "result": "36 (±8) mm"}]}
{"smiles": "COCCNC(=O)Nc1cnns1", "note": "[Compound 6, 1-(2-methoxy-ethyl)-3-[1,2,3]thiadiazol-5-yl-urea]", "values": [{"measurement": "IC50", "setting": "[1]; [7]", "result": 30, "unit": "nM"}, {"measurement": "CC50 at 72 h", "setting": "[2]", "result": "> 100", "unit": "µM"}, {"measurement": "level of membrane lipid peroxidation during dark senescence reduced to", "setting": "[3]; compared to untreated control", "result": 44.6, "unit": "%"}, {"measurement": "MDA", "setting": "[3]", "result": "9.6 (±0.7) nmol/g FW"}, {"measurement": "IC50", "setting": "[4]; [8]", "result": 950, "unit": "nM"}, {"measurement": "Ethylene produced", "setting": "wheat leaves", "result": "275 (±14) nL/g FW"}, {"measurement": "grain yield compared to untreated control", "setting": "[5]", "result": 107.3, "unit": "%"}, {"measurement": "Lateral root number", "setting": "[6]", "result": "17 (±9)"}, {"measurement": "Primary root lenght", "setting": "[6]", "result": "48 (±15) mm"}]}
{"smiles": "O=C(NCc1ccco1)Nc1cnns1", "note": "[Compound 84, N-furfuryl-N′-1,2,3-thiadiazol-5-yl-urea]", "values": [{"measurement": "IC50", "setting": "[1]; [7]", "result": 30, "unit": "nM"}, {"measurement": "CC50 at 72 h", "setting": "[2]", "result": "> 100", "unit": "µM"}, {"measurement": "MDA", "setting": "[3]", "result": "12.7 (±1.1) nmol/g FW"}, {"measurement": "IC50", "setting": "[4]; [8]", "result": 1200, "unit": "nM"}, {"measurement": "elevation of ethylene production compared to untreated control", "setting": "wheat leaves; 96 h", "result": 25, "unit": "%"}, {"measurement": "Ethylene produced", "setting": "wheat leaves", "result": "337 (±28) nL/g FW"}, {"measurement": "Lateral root number", "setting": "[6]", "result": "13 (±6)"}, {"measurement": "Primary root lenght", "setting": "[6]", "result": "30 (±6) mm"}]}
